Measured values as given in publication PMC7515829, “HKDC1 C-terminal based peptides inhibit extranodal natural killer/T-cell lymphoma by modulation of mitochondrial function and EBV suppression” (Leukemia, 2020).
Where two headings read alike, the source gives them in different places.

Tests used:
[1] = tested on: SNK6 xenograft; experiment: Tumor growth by H&E staining (tumor spots); type: in vivo, mouse; settings: nude mice, intratumoral 50 µM peptide every 2 days from day ~18, tissue day 50, vs CTL, n = 5
Text: Biomedical analysis of tumor tissues.

[2] = tested on: SNK6 cells; experiment: Cell migration assay; type: cell-based, human; settings: 0.5 µM peptide, 6 h, vs CTL, n = 5 (Fig. 5b)
Procedure: (§1) Migration and invasion assays. Cell migration and invasion assays were performed in 24-well chemotaxis plates with an 8μm polycarbonate filter membrane. The plates were coated with 20μg Matrigel for invasion assays and uncoated for migration assays. Invasion and migration were expressed as the number of migrated cells bound per microscopic field and averaged from at least four fields per assay in at least 4 experiments (18, 19).

[3] = tested on: SNK6 xenograft; experiment: SNK6 xenograft tumor volume; type: in vivo, mouse; settings: nude mice, n = 5; for tumor volumes on day 36: intratumoral 50 µM peptide every 2 days from day ~18, day 36, vs CTL; for tumor volumes on day 48: intratumoral 50 µM peptide every 2 days from day ~18, day 48, vs CTL
Procedure: To measure malignant SNK6 xenograft growth, 100 µl of 1 × 10^5 SNK6 cells in PBS were mixed with 100 µl growth factor-reduced basement membrane matrix (Matrigel™, BD Biosciences) resulting in 200 µl of solution that was injected subcutaneously along the mouse flank at each intended tumor site. Tumor size was measured using a digital caliper and volume was calculated, and mice were randomly divided into four groups (n = 9 per group) when the tumor volume reached 50–100 mm^3 on day ~18 after tumor inoculation and given treatment as follows: Group 1 (control (CTL)) was intratumorally injected with HBSS buffer (5.33 mM KCl, 0.44 mM KH2PO4, 138 mM NaCl, 4 mM NaHCO3, 0.3 mM Na2HPO4, and 5.6 mM glucose, pH 7.3) containing 0.05% DMSO; Group 2 (Tf-D-HKN15) received HBSS buffer containing 0.05% DMSO with 50 µM Tf-D-HKN15 peptides; Group 3 (Tf-D-HKC15) received HBSS buffer containing 0.05% DMSO with 50 µM Tf-D-HKC15 peptides; Group 4 (Tf-D-HKC8) received HBSS buffer containing 0.05% DMSO with 50 µM Tf-D-HKC8 peptides. The xenografts were injected (two points, 20 µl per tumor) every 2 days. Beginning on the day of inoculation, mouse weight and tumor volume were monitored every 2 days. Mice were monitored for changes in body weight and sacrificed when values fell below 20% of their initial weight; the survival curve was calculated and the final tumor tissues were isolated for biomedical analysis.
To measure the malignant SNK6 xenograft growth, the 100µl of 1x10^5 SNK6 cells in PBS were mixed with 100µl growth factor-reduced basement membrane matrix (Matrigel™, BD Biosciences) resulting in 200µl of solution that was injected subcutaneously along the mouse flank at each intended tumor site. Tumor size was measured using a digital caliper and volume was calculated, and mice were randomly divided into 4 groups (n=9 per group) when the tumor volume reached 50-100 mm^3 on day ~18 after tumor inoculation: Group 1 (CTL) was intratumorally injected with HBSS buffer (5.33 mM KCl, 0.44 mM KH2PO4, 138 mM NaCl, 4 mM NaHCO3, 0.3 mM Na2HPO4, and 5.6 mM glucose, pH 7.3) containing 0.05% DMSO; Group 2 (Tf-D-HKN15) received HBSS buffer containing 0.05% DMSO with 50 µM Tf-D-HKN15 peptides; Group 3 (Tf-D-HKC15) received HBSS buffer containing 0.05% DMSO with 50 µM Tf-D-HKC15 peptides; Group 4 (Tf-D-HKC8) received HBSS buffer containing 0.05% DMSO with 50 µM Tf-D-HKC8 peptides. The xenografts were injected (two points, 20 µL per tumor) every two days. Beginning on the day of inoculation, mouse weight and tumor volume were monitored every 2 days. Mice were monitored for changes in body weight and sacrificed when values fell below 20% of their initial weight, the survival curve was calculated and the final tumor tissues were isolated for biomedical analysis.

[4] = tested on: SNK6 cells; experiment: γH2AX formation (western blot); type: cell-based, human; settings: 0.5 µM peptide, 6 h, vs CTL, n = 5 (Fig. 3d)
Procedure: Measurement of DNA breaks. 8-OHdG formation was measured using an OxiSelect™ Oxidative DNA Damage ELISA Kit (Cat No. STA320, from Cell Biolabs Inc.) per manufacturers’ instructions. The formation of γH2AX was measured from nuclear extracts by western blotting using H2AX as the input control (8).

[5] = tested on: EBV; experiment: EBV viral genomes/cell by qPCR in SNK6 cells; type: cell-based; settings: 0.5 µM peptide, 6 h, vs CTL, n = 4 (Fig. 3i)
Procedure: Detection of EBV copy number. Genomic DNA was extracted from treated SNK-6 cells or SNK-6 tumor tissue in mice using a QIAamp DNA Mini Kit (Qiagen). The EBV DNA copy number was measured through qPCR using 50ng of total DNA with EBV BMRF1 primers (see Table 1), and the results were normalized using cellular β-actin (primers see Table 1) as an internal control (13, 14). The Namalwa cell line, which contains 2 EBV viral genome copies, was used as a standard to prepare calibration curves for both EBV BMRF1 and β-actin genes, and the EBV viral load was presented as the number of viral genomes per cell (15, 16).

[6] = tested on: SNK6 cells; experiment: Cell invasion assay; type: cell-based, human; settings: 0.5 µM peptide, 6 h, Matrigel, vs CTL, n = 5 (Fig. 5c)
Procedure: as §1

[7] = biological target: HKDC1/VDAC1 (Homo sapiens, UniProt P21796); experiment: IP/WB association of HKDC1 with VDAC1 in SNK6 cells; type: cell-based; parameters: endogenous in cells; host or cells: SNK6; settings: 0.5 µM peptide, 6 h, vs CTL, n = 5 (Fig. 4c, d)
Procedure: Immunoprecipitation (IP) and Western Blotting (WB). Cell lysates were pre-cleared by pre-immune IgG plus Protein A agarose beads for 2 hours, and the supernatants were immunoprecipitated by the indicated antibodies and a 50% slurry of Protein A Agarose beads overnight at 4 °C (9). After washing with buffer containing 50 mM Tris, pH 7.5, 150 mM NaCl, 1% NP-40, and 0.5% deoxycholate with protease inhibitors, proteins were released, separated on 10% SDS-PAGE gels, blotted by primary antibodies, and then simultaneously incubated with the differentially labeled species-specific secondary antibodies, anti-RABBIT IRDye™ 800CW (green) and anti-MOUSE (or goat) ALEXA680 (red). Membranes were scanned and quantitated by the ODYSSEY Infrared Imaging System (LI-COR, NE) (10).

[8] = tested on: SNK6 cells; experiment: Cell proliferation by thymidine incorporation; type: cell-based, human; settings: 0.5 µM peptide, 6 h, vs CTL, n = 5 (Fig. 5a)
Procedure: DNA synthesis by [^3H]-thymidine incorporation. Cell proliferation was evaluated as the rate of DNA synthesis by [^3H]-methylthymidine incorporation (17). […] At the end of the treatment, cells were incubated with serum-free media containing ^3H-methylthymidine (0.5 µCi/well) for 2 hours and then washed twice with PBS. Cellular DNA was precipitated using 10% trichloroacetic acid and solubilized with 0.4M NaOH (0.5 ml/well). Incorporation of ^3H-methylthymidine into the DNA was measured in a scintillation counter and was determined as counts per minute (CPM) (8).

[9] = tested on: SNK6 cells; experiment: Apoptosis rate by TUNEL assay; type: cell-based, human; settings: 0.5 µM peptide, 6 h, compared with CTL group, n = 5 (Fig. 4h)
Procedure: (§2) Measurement of apoptosis and cell death. Apoptosis was evaluated by TUNEL assay using the In Situ Cell Death Detection Kit™ (Roche). Cells were fixed in 4% paraformaldehyde and labeled with TUNEL reagents. Stained cells were photographed by a fluorescence microscope (11). For cell death analysis, the propidium iodide (PI) staining was performed by addition of 6.25 µg/ml of PI to the cells, and cell death was immediately evaluated by FACS analysis (3).

[10] = tested on: MNCs from ENKTL patients; settings: read-out: IC50 (µM) ENKTL, half-maximal cell death activity, peptides 0.1–15 µM, 6 h, PI staining, FACS, mean ± SEM, n in cell
Text: (§3) We investigated the potential role of HKDC1-based peptides in ENKTL cells that were isolated from the MNCs of ENKTL patients or SNK6 cell line. Three different kinds of HKDC1-based targeting peptides, including the last 15 aa at either the N-terminal (HKN15) or C-terminal (HKC15), or the last eight aa at the C-terminal (HKC8) were selected; four different kinds of cell-penetrating sequences were employed to deliver the HKDC1-based peptides, including Antp (a 16 penetrating residue long sequence from the Drosophila antennapedia-homeodomain), penetration-accelerating segment, TAT (HIV-1 TAT sequence), and Tf (the Tf receptor (TfR) internalization sequence) sequences. All of the aa with the D-configuration (marked as D) were synthesized as retro-inverso peptides. […] We then evaluated the toxic effect of two peptides (including Tf-D-HKC15 and Tf-D-HKC8) on different kinds of primary and cancer cell lines (see details in Table 2). […] We also evaluated the peptide delivery efficiency using ^125I-labeled uptake assay for both Tf-D-HKC8 and Tf-D-HKC15 peptides.
as §2

[11] = tested on: SNK6 cells
Text: as §3, §2

[12] = read-out: IC50 (µM) SNK6, half-maximal cell death activity, SNK6 cells, peptides 0.1–15 µM, 6 h, PI staining, FACS, mean ± SEM, n in cell (Table 1)

HKDC1/VDAC1, sequence (P21796 2-283 limits assumed): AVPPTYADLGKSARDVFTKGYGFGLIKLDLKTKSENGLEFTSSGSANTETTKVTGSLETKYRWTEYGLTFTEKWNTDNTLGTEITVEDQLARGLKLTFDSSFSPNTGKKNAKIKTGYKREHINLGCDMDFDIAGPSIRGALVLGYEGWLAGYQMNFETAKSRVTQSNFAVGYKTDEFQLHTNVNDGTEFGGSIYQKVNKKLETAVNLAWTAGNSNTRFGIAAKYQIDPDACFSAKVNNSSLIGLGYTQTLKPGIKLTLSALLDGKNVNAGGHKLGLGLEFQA

For HAIYPRH-ITAVAKRLQQAQKEN [Tf-D-HKC15], the “tumor growth using H&E staining (tumor spots)” value [1] was 56%, the cell migration [2] was 66% and the “tumor volumes on day 36” value [3] was 63%. The “tumor volumes on day 48” value [3] was 70%, the γH2AX formation [4] was 144% and the EBV genome copies [5] was 62%. The cell invasion [6] was 61%, the “association of HKDC1 with VDAC1” value [7] was 68% and the thymidine incorporation [8] was 71%. It also gave an apoptosis rate increase [9] of 2.91 fold, an IC50 [10] of 0.9 ± 0.3 µM and an IC50 [11, 12] of 1.2 ± 0.5 µM. For the same substance, the IC50 ([11]; read-out: Peptide IC50 (µM), cell death, SNK6, Human natural killer/T-cell lymphoma/EBV(+), 0.1–15 µM, 6 h (suspension) or 12 h (adherent cells), PI/FACS, mean ± SEM (Table 2)) was 1.2 ± 0.3 µM.

In the case of HAIYPRH-LQQAQKEN [Tf-D-HKC8], the “tumor growth using H&E staining (tumor spots)” value [1] is reported as 23%, the cell migration [2] is reported as 23% and the “tumor volumes on day 36” value [3] is reported as 36%. For the same substance, the “tumor volumes on day 48” value [3] was 32%, the γH2AX formation [4] was 189% and the EBV genome copies [5] was 21%. For the same substance, the cell invasion [6] was 29%, the “association of HKDC1 with VDAC1” value [7] was 24% and the thymidine incorporation [8] was 28%. It also gave an apoptosis rate increase [9] of 11.4 fold, an IC50 [10] of 0.2 ± 0.1 µM and an IC50 [11, 12] of 0.3 ± 0.2 µM.
